Earlier results on 10 compounds are cited in US20100136125A1, “METHOD OF TREATING INFLAMMATORY BOWEL DISEASE” (Jacobus Pharmaceutical Company, Inc., priority 2006, published 2010).

Usually IC50 stands for the concentration at which inhibition is half-maximal. By half-life is commonly meant the time in which the quantity being followed falls by half. A word on the Cmax: it is the peak of the concentration-time curve. The term Tmax denotes the time from dosing to the highest level.

Where two headings read alike, the source gives them in different places.

Data set [1] has as its target T1, thiopurine methyltransferase (TPMT) (Homo sapiens, UniProt P51580).
T1 sequence (P51580 1-245): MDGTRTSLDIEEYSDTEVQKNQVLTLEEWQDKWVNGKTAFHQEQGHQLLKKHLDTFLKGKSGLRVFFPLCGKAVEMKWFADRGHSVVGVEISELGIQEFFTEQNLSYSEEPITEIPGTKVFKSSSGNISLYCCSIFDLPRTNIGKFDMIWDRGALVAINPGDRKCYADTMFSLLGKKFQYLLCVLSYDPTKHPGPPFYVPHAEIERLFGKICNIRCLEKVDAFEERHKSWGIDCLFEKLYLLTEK
Conditions: in vitro kinetic studies; read-out: IC50, non-competitive inhibition of TPMT.

Another data set deals with ulcerative colitis. Particulars: topical.
The test system of data set [2] is distal ulcerative colitis. Conditions: enema 2 g bid, open-label.
The test system of data set [3] is active left-sided ulcerative colitis. Particulars: 2 gram nightly retention enema, p<0.005 vs placebo.
For data set [4] the following is noted: children, 300 mg/kg/day in 5 equal doses.
The conditions of data set [5]: in vivo.
Data set [6] has as its system quiescent Crohn's ileocolitis. Conditions: 1.5 g/d slow release, maintenance therapy.
Experiment in data set [7]: not given
This is another data set of the same source.

For data set [8], the system named is Crohn's disease. Conditions: in vivo.
Data set [9] relates to Crohn's disease.
Setting [10] is: dose 4.0 gm PASER, 2.6-2.8 gm salts.

Consider `Nc1cccc(C(=O)O)c1O` [3-ASA], for which the IC50 in [1] is 99 µM.

Take `Nc1ccc(C(=O)O)c(O)c1` [4-ASA, 4-aminosalicylic acid]: in the data set on ulcerative colitis, the “clinical improvement within 2 weeks” value is listed as 79%, the “histologic improvement within 2 weeks” value was 44% and the “sigmoidoscopic improvement within 2 weeks” value is on record as 78%. The “participants with complete resolution of symptoms and sigmoidoscopic abnormalities by 8 weeks” value in data set [2] is recorded as 46%. Moreover, the “additional participants experiencing improvement” value in [2] (8 weeks) was 31%. The “significant improvement in clinical, sigmoidoscopic and histologic variables after 8 weeks” value in [3] is recorded as 83%. Also, the “excreted in the urine” value (in vivo) is on record as no more than 80%. Also, the “half-life of free 4-ASA” value (renal disease) was 30.8 min. Moreover, under “urine”, the “dosage excreted in acetylated form” value was no less than 50%. The “half-life of free 4-ASA” value (without renal disease) was 26.4 min. In addition, in data set [1], the IC50 is 2600 µM. For the same compound, in data set [4], the “serum level after 4 hours” value was 2-2.5 mg percent and the “serum level of 4-ASA 60 minutes after oral solution” value is on record as no more than 120 micrograms/ml. Besides, in data set [5], the half-life is 50 min. Moreover, the “relapse rate after one year” value in data set [6] was 36%. Moreover, the MIC entry in the data set with tuberculosis (bacteriostatic) is “under 2 μg/ml”.

Turning to `Nc1ccc(O)c(C(=O)O)c1` [5-ASA, 5-aminosalicylic acid], in the data set with ulcerative colitis, the “clinical improvement within 2 weeks” value is 79%, the “histologic improvement within 2 weeks” value is listed as 44% and the “sigmoidoscopic improvement within 2 weeks” value is 78%. The half-maximal inhibitory concentration (IC50) in [1] was 1240 µM. For the same compound, the “relapse rate after one year” value in data set [6] is 38%. Also, in the data set with tuberculosis, the “anti-tuberculous activity” value was “no anti-tuberculous activity”.

In the case of `Nc1ccc(C(=O)O)c([O-])c1.Nc1ccc(C(=O)O)c([O-])c1.[Ca+2]` [Ca++ PAS], in data set [7] (in vivo), the “AOC0-∞” value is 326.83 µg·h/mL, the Cmax was 139.51 µg/mL and the Tmax was 61.2 min.

As for `Nc1ccc(C(=O)[O-])c(O)c1.[K+]` [K+ PAS], in data set [7] (setting [10]), the “AOC0-∞” value was 313.22 µg·h/mL, the Cmax was 121.09 µg/mL and the time to peak (Tmax) is 66 min.

Take `Nc1ccc(C(=O)[O-])c(O)c1.[Na+]` [Na+ PAS]: in [7] (in vivo), the “AOC0-∞” value is 313.22 µg·h/mL, the Cmax is 155.44 µg/mL and the time of peak concentration (Tmax) is 49.8 min.

For `O=C(O)c1cc(/N=N/c2ccc(S(=O)(=O)Nc3ccccn3)cc2)ccc1O` [sulfasalazine], the IC50 in data set [1] is 78 µM.

For the compound Acetyl-para-aminosalicylate [Ac-PAS], the “half-life of the acetylated metabolite” value (normals) was 51 min and the “half-life of the acetylated metabolite” value (uremic patients) is 309 min.

For the compound “granulocyte-macrophage stimulating factor: granulocyte-macrophage stimulating factor studied in active Crohn's disease”, in the data set with Crohn's disease [8], the “time by which significant clinical activity is demonstrated” value is reported as no more than 15 days.

As to “infliximab: TNF antagonist, chimeric monoclonal antibody cA2 to tumor necrosis factor α”, in the data set with Crohn's disease [9] (at 4 weeks), the remission rate is on record as 33% and the response rate was 65%. Besides, in the data set on Crohn's disease [9] (by two weeks), the “remission (CDAI<150 and IBDQ>170-190)” value is 27%; the “response (decrease in CDAI≧70 points)” value is 61%.
